Assay in all cases: KINOMEscan (ScanMAX) kinase profiling
Holding throughout (type): binding

The target of test [1] is T1, panel of 468 kinases (Homo sapiens, UniProt Q16513).
T1 construct: purchased KINOMEscan (ScanMAX) service
The conditions noted are these: PKN2; 1 μM; read-out: % control.

Test [2] deals with T2, panel of 468 kinases (Homo sapiens, UniProt Q9NYY3).
T2 construct: purchased KINOMEscan (ScanMAX) service
The conditions noted are these: PLK2; 1 μM; read-out: % control.

Test [3] concerns the target T3, panel of 468 kinases (Homo sapiens, UniProt Q9HBH9).
T3 construct: purchased KINOMEscan (ScanMAX) service
The following applies: MKNK2; 1 μM; read-out: % control.

The target in test [4] is T4, panel of 468 kinases (Homo sapiens, UniProt P08581, M1250T).
T4 construct: purchased KINOMEscan (ScanMAX) service
The following applies: MET(M1250T); 1 μM; read-out: % control.

Test [5] concerns the target T5, panel of 468 kinases (Homo sapiens, UniProt Q13233).
T5 construct: purchased KINOMEscan (ScanMAX) service
The following applies: MAP3K1; 1 μM; read-out: % control.

The target in test [6] is T6, panel of 468 kinases (Homo sapiens, UniProt P42680).
T6 construct: purchased KINOMEscan (ScanMAX) service
T6 sequence (P42680 1-631): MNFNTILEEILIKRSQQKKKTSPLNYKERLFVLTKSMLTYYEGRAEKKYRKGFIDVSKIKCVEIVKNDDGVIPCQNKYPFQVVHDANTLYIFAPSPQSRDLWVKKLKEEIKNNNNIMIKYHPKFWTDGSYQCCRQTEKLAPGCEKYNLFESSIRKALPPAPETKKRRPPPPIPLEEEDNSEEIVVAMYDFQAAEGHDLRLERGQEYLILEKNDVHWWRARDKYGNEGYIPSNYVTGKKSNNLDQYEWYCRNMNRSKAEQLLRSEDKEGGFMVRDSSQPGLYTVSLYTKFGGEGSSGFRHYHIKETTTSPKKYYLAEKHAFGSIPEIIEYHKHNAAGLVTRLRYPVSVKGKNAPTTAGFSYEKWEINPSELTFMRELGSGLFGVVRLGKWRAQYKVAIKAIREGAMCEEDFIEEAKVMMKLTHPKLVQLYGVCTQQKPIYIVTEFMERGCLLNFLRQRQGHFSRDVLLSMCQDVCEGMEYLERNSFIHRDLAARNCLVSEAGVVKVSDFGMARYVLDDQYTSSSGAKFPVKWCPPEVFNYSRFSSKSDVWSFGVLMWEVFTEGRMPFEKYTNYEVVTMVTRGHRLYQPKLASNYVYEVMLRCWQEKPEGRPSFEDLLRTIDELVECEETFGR
The following applies: TEC; 1 μM; read-out: % control.

For test [7], the target named is T7, panel of 468 kinases (Homo sapiens, UniProt P43405).
T7 construct: purchased KINOMEscan (ScanMAX) service
The conditions noted are these: SYK; 1 μM; read-out: % control.

Test [8] addresses T8, panel of 468 kinases (Homo sapiens, UniProt P53671).
T8 construct: purchased KINOMEscan (ScanMAX) service
The following applies: LIMK2; 1 μM; read-out: % control.

Test [9] concerns the target T9, panel of 468 kinases (Homo sapiens, UniProt Q16584).
T9 construct: purchased KINOMEscan (ScanMAX) service
The following applies: MLK3; 1 μM; read-out: % control.

In test [10] the target is T10, panel of 468 kinases (Homo sapiens, UniProt Q5VT25).
T10 construct: purchased KINOMEscan (ScanMAX) service
The following applies: MRCKA; 1 μM; read-out: % control.

For test [11], the target named is T11, panel of 468 kinases (Homo sapiens, UniProt O14920).
T11 construct: purchased KINOMEscan (ScanMAX) service
T11 sequence (O14920 1-756): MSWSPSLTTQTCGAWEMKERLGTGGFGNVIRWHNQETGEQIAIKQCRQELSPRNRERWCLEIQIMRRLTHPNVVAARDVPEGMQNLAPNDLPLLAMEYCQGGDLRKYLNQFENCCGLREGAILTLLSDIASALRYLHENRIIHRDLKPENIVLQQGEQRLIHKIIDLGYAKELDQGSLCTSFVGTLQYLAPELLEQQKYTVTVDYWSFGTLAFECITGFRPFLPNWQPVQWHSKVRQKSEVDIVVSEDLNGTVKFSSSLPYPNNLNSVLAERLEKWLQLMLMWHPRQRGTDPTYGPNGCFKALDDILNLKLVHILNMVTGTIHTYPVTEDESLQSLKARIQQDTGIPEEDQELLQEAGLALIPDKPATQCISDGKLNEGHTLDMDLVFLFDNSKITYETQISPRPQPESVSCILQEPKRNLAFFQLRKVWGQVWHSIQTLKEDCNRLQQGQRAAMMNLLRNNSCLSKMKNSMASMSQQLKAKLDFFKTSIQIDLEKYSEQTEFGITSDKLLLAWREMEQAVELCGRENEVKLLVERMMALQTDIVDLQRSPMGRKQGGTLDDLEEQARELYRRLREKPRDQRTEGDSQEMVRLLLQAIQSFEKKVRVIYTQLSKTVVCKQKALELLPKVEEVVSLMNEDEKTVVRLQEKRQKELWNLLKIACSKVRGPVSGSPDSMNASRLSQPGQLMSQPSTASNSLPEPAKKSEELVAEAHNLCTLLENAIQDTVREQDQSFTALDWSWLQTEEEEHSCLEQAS
The following applies: IKK-beta; 1 μM; read-out: % control.

In test [12] the target is T12, panel of 468 kinases (Homo sapiens, UniProt Q92918).
T12 construct: purchased KINOMEscan (ScanMAX) service
T12 sequence (Q92918 whole entry): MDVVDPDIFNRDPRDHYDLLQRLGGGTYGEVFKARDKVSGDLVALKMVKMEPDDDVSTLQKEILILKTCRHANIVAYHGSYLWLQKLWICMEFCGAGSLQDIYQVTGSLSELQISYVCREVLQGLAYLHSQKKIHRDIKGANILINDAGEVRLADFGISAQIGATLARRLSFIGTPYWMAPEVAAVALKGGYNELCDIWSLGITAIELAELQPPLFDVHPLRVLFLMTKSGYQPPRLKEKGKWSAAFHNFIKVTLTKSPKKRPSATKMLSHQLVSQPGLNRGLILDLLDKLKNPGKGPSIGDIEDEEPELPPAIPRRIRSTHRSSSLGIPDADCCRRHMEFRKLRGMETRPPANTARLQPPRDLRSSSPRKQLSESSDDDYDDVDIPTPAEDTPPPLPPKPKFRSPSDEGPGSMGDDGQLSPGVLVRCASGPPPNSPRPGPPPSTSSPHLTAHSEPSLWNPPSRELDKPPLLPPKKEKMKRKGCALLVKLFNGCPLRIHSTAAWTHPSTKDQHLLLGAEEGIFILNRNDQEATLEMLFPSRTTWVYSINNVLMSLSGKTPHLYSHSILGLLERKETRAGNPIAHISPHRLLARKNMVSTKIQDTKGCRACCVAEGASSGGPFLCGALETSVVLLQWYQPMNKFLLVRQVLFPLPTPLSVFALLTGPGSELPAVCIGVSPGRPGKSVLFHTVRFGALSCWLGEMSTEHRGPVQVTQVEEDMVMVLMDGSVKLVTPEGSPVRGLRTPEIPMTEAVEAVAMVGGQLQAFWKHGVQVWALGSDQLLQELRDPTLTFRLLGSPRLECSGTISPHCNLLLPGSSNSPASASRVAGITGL
The following applies: HPK1; 1 μM; read-out: % control.

Each structure is given as a SMILES string.

T2 sequence (Q9NYY3 whole entry): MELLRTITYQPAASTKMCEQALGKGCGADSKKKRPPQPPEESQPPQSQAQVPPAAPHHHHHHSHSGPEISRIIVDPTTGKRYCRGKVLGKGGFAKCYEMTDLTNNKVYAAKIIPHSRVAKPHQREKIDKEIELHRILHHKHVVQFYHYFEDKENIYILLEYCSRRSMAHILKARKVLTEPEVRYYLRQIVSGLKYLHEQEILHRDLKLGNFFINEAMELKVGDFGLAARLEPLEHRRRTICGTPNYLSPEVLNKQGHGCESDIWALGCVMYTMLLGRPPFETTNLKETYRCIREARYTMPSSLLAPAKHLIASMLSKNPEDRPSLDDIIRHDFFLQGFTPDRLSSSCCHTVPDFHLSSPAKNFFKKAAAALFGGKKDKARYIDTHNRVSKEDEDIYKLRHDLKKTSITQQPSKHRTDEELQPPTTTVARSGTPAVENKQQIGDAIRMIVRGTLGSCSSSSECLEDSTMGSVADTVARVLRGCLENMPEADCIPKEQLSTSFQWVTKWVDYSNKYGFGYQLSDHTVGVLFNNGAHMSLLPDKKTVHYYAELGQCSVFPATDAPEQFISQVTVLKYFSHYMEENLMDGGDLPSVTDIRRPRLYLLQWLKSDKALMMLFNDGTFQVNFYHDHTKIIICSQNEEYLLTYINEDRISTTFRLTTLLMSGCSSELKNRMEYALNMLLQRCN
T5 sequence (Q13233 whole entry): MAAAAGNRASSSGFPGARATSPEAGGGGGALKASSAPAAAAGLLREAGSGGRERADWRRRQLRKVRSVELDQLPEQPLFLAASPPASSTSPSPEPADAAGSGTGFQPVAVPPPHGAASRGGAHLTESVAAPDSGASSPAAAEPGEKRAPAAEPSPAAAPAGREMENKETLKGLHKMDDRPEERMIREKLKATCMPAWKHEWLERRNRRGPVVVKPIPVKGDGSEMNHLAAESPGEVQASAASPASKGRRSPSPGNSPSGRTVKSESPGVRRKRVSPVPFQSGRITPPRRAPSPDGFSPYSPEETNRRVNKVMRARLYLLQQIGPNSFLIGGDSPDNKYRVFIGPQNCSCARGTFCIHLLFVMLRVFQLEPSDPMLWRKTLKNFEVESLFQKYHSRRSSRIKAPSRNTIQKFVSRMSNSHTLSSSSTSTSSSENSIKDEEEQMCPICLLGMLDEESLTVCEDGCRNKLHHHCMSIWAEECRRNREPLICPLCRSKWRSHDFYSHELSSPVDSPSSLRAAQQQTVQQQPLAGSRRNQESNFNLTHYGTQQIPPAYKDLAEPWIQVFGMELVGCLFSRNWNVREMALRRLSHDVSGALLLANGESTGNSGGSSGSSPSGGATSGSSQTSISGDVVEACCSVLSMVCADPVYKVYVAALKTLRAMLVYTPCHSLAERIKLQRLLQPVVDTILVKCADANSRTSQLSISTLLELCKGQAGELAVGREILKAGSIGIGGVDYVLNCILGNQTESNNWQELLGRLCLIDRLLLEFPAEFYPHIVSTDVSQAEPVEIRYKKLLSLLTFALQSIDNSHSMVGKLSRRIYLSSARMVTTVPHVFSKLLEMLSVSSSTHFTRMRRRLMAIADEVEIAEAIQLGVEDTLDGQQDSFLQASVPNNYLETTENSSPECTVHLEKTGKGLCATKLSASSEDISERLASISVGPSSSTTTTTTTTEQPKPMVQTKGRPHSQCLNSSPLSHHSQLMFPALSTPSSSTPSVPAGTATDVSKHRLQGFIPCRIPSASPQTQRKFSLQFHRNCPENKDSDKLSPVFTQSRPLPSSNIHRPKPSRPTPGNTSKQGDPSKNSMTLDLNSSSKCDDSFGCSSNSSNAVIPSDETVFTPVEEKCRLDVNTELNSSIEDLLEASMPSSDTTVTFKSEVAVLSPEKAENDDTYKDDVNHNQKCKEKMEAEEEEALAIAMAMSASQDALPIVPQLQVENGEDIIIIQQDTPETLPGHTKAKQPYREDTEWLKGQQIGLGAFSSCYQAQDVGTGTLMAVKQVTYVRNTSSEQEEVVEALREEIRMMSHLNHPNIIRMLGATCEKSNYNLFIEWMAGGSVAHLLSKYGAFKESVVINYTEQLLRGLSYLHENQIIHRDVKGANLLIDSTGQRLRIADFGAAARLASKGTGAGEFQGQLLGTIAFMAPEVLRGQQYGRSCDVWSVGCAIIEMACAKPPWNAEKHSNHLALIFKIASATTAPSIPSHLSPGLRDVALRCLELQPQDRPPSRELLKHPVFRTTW
T9 sequence (Q16584 whole entry): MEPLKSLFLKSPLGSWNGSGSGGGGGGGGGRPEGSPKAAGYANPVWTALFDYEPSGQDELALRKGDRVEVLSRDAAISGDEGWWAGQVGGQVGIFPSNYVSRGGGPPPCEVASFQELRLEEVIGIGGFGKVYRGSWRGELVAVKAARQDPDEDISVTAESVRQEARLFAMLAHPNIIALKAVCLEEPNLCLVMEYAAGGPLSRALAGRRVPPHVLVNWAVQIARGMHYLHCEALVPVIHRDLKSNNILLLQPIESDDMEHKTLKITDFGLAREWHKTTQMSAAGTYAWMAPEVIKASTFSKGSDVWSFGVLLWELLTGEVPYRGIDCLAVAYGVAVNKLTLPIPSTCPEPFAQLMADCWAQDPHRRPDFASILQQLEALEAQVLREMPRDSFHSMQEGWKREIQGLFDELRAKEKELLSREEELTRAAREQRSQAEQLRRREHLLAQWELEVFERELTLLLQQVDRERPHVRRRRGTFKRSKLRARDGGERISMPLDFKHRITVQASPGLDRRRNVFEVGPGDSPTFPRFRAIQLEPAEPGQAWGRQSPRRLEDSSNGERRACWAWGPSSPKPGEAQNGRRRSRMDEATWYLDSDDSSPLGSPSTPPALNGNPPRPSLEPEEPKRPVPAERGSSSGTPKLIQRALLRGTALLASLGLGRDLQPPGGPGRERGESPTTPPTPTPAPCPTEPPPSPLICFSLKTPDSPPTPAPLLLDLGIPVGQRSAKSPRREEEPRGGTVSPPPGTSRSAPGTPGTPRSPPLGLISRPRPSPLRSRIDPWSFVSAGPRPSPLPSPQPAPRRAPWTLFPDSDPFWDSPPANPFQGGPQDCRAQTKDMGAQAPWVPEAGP
T8 sequence (P53671 whole entry): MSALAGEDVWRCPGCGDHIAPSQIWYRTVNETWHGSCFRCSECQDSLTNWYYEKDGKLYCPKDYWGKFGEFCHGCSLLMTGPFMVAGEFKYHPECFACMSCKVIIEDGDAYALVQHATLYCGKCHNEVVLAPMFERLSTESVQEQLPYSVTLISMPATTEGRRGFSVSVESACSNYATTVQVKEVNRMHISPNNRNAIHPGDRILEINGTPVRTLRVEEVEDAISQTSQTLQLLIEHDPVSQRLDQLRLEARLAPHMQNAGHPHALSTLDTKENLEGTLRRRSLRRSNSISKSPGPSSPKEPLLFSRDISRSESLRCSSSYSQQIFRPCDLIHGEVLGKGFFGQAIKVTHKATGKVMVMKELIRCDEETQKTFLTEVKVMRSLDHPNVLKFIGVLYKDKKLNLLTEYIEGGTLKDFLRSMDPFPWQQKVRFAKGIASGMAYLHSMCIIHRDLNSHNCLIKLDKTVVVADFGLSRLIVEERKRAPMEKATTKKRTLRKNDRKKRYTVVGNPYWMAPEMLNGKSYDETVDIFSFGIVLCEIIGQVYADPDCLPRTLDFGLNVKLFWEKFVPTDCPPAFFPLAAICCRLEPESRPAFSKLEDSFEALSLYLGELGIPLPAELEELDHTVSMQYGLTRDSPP
T3 sequence (Q9HBH9 whole entry): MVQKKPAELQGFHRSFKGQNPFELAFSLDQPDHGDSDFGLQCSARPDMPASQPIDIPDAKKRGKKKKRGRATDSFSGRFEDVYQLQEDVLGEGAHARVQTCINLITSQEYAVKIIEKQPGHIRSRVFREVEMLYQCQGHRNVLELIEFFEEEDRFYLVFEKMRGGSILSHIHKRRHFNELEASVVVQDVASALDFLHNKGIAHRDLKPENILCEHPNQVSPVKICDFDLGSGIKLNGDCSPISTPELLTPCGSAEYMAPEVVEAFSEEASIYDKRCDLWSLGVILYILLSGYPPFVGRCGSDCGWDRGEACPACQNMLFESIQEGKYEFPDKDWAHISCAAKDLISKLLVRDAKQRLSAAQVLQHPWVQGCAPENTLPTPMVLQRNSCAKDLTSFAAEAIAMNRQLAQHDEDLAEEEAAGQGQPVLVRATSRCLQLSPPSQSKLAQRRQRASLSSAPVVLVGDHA

As to `CNc1nc(Nc2ccc(S(=O)(=O)N3CCC(N4CCOCC4)CC3)cc2OC)nc2[nH]cc(Cl)c12` [Compound 12, 5-chloro-N2-(2-methoxy-4-((4-morpholinopiperidin-1-yl)sulfonyl)phenyl)-N4-methyl-7H-pyrrolo[2,3-d]pyrimidine-2,4-diamine], the remaining binding at 1 µM came out at 99% on panel of 468 kinases [1]; 80% at panel of 468 kinases [2]; 57% on panel of 468 kinases [3]; 100% at panel of 468 kinases [4]; 79% on panel of 468 kinases [5]; 93% on panel of 468 kinases [6]. Also, the remaining binding at 1 µM at panel of 468 kinases [7] worked out at 55%; on panel of 468 kinases [8], 100%; on panel of 468 kinases [9], 93%; at panel of 468 kinases [10], 100%; at panel of 468 kinases [11], 100%; at panel of 468 kinases [12] it was 78%.

As to `CNc1nc(Nc2ccc(C(=O)N3CCC(N4CCOCC4)CC3)c3c2OCO3)nc2[nH]cc(Cl)c12` [Compound 75, (7-((5-chloro-4-(methylamino)-7H-pyrrolo[2,3-d]pyrimidin-2-yl)amino)benzo[d][1,3]dioxol-4-yl)(4-morpholinopiperidin-1-yl)methanone], the remaining binding at 1 µM at panel of 468 kinases [1] was found to be 91%; on panel of 468 kinases [2] it was 82%; at panel of 468 kinases [3], 10%; on panel of 468 kinases [4], 100%; on panel of 468 kinases [5] it was 82%; on panel of 468 kinases [6] it was 100%. For the same compound, the remaining binding at 1 µM at panel of 468 kinases [7] turned out to be 35%; at panel of 468 kinases [8] it was 99%; at panel of 468 kinases [9], 51%; at panel of 468 kinases [10], 100%; at panel of 468 kinases [11], 96%; at panel of 468 kinases [12] it was 47%.

With `CNc1nc(Nc2ccc(P3(=O)CCN(C4CCOCC4)CC3)cc2OC)nc2[nH]cc(Cl)c12` [Compound 77, 4-(4-((5-chloro-4-(methylamino)-7H-pyrrolo[2,3-d]pyrimidin-2-yl)amino)-3-methoxyphenyl)-1-(tetrahydro-2H-pyran-4-yl)-1,4-azaphosphinane 4-oxide], the remaining binding at 1 µM stood at 100% at panel of 468 kinases [1]; 75% on panel of 468 kinases [2]; 31% at panel of 468 kinases [3]; 100% at panel of 468 kinases [4]; 73% at panel of 468 kinases [5]; 97% at panel of 468 kinases [6]. For the same compound, the remaining binding at 1 µM on panel of 468 kinases [7] came to 43%; on panel of 468 kinases [8] it was 84%; at panel of 468 kinases [9], 80%; at panel of 468 kinases [10] it was 92%; at panel of 468 kinases [11] it was 95%; at panel of 468 kinases [12] it was 97%.

Source of the values: patent US12479847B2 (DANA-FARBER CANCER INSTITUTE, INC., priority 2019, dated 2025).
